Reference: patent US6436963B1 (priority 1998, dated 2002)

Legend:
Puccinia recondita = assay: Brown Rust (PUCCRT), protectant spray test on wheat seedlings; format: in vivo; details: wheat (cultivar Monon), sprayed to run off at 100 ppm, inoculated after 24 hours
Septoria tritici = details: wheat (cultivar Monon), sprayed to run off at 100 ppm, inoculated after 24 hours
Erysiphe graminis = assay: Powdery Mildew of Wheat (ERYSGT), protectant spray test on wheat seedlings; format: in vivo; details: wheat (cultivar Monon), sprayed to run off at 100 ppm, inoculated after 24 hours
Phytophthora infestans = format: in vivo; details: tomatoes (cultivar Rutgers), sprayed to run off at 100 ppm, inoculated after 24 hours
Leptosphaeria nodorum = assay: Glume Blotch of Wheat (LEPTNO), protectant spray test on wheat seedlings; format: in vivo; details: wheat (cultivar Monon), sprayed to run off at 100 ppm, inoculated after 24 hours

SMILES | PUCCRT control of plant disease (Puccinia recondita) | SEPTTR control of plant disease (Septoria tritici) | ERYSGT control of plant disease (Erysiphe graminis) | PHYTIN control of plant disease (Phytophthora infestans) | LEPTNO control of plant disease (Leptosphaeria nodorum)
CNC(=O)C(=NOC)c1ccccc1COc1ncc(C(O)c2ccc(OC(F)(F)F)cc2)cc1Cl (racemic) [Example 16] | ++ (++ = 75-100% control of plant disease) | ++ (++ = 75-100% control of plant disease) | ++ (++ = 75-100% control of plant disease) | − (− = 0-24% control of plant disease) | 
CNC(=O)C(=NOC)c1ccccc1COc1ncc(C(O)c2ccc(Cl)cc2)cc1C (racemic) [Example 15] | ++ (++ = 75-100% control of plant disease) | ++ (++ = 75-100% control of plant disease) | ++ (++ = 75-100% control of plant disease) | ++ (++ = 75-100% control of plant disease) | 
CNC(=O)C(=NOC)c1ccccc1COc1ncc(C(O)c2ccccc2)cc1C (racemic) [Example 13] | ++ (++ = 75-100% control of plant disease) | ++ (++ = 75-100% control of plant disease) | ++ (++ = 75-100% control of plant disease) | ++ (++ = 75-100% control of plant disease) | 
CNC(=O)C(=NOC)c1ccccc1COc1ncc(C(OC(C)=O)c2ccccn2)cc1Cl (centres unmarked) [Example 108] | ++ (++ = 75-100% control of plant disease) |  | ++ (++ = 75-100% control of plant disease) | ++ (++ = 75-100% control of plant disease) | ++ (++ = 75-100% control of plant disease)
CNC(=O)C(=NOC)c1ccccc1COc1ncc(C(OC(C)=O)c2cccc(C)c2)cc1Cl (centres unmarked) [Example 112] | ++ (++ = 75-100% control of plant disease) |  | ++ (++ = 75-100% control of plant disease) | ++ (++ = 75-100% control of plant disease) | ++ (++ = 75-100% control of plant disease)
CNC(=O)C(=NOC)c1ccccc1COc1ncc(C(C)(O)c2ccccc2)cc1Cl (racemic) [Example 26] | ++ (++ = 75-100% control of plant disease) |  | ++ (++ = 75-100% control of plant disease) | ++ (++ = 75-100% control of plant disease) | ++ (++ = 75-100% control of plant disease)
CNC(=O)C(=NOC)c1ccccc1COc1ncc(C(O)c2ccc(C(C)(C)C)cc2)cc1Cl (racemic) [Example 10] | ++ (++ = 75-100% control of plant disease) |  | ++ (++ = 75-100% control of plant disease) | ++ (++ = 75-100% control of plant disease) | ++ (++ = 75-100% control of plant disease)
CNC(=O)C(=NOC)c1ccccc1COc1ncc(C(C)Oc2ccc(OC)cc2)cc1Cl (centres unmarked) [Example 89] | ++ (++ = 75-100% control of plant disease) |  | ++ (++ = 75-100% control of plant disease) | ++ (++ = 75-100% control of plant disease) | ++ (++ = 75-100% control of plant disease)
CNC(=O)C(=NOC)c1ccccc1COc1ncc(C(OC)c2ccccc2)cc1Cl (racemic) [Example 38] | ++ (++ = 75-100% control of plant disease) |  | + (+ = 25-74% control of plant disease) | − (− = 0-24% control of plant disease) | ++ (++ = 75-100% control of plant disease)
CCOC(c1ccccc1)c1cnc(OCc2ccccc2C(=NOC)C(=O)NC)c(Cl)c1 (centres unmarked) [Example 69] | ++ (++ = 75-100% control of plant disease) |  | ++ (++ = 75-100% control of plant disease) | − (− = 0-24% control of plant disease) | ++ (++ = 75-100% control of plant disease)
CNC(=O)C(=NOC)c1ccccc1COc1ncc(C(O)c2ccccc2)cc1Cl (centres unmarked) [Example 72] | ++ (++ = 75-100% control of plant disease) |  | ++ (++ = 75-100% control of plant disease) | ++ (++ = 75-100% control of plant disease) | ++ (++ = 75-100% control of plant disease)
CNC(=O)C(=NOC)c1ccccc1COc1ncc(C(C)(OC(C)=O)c2ccccc2)cc1Cl (racemic) [Example 53] | ++ (++ = 75-100% control of plant disease) |  | ++ (++ = 75-100% control of plant disease) | ++ (++ = 75-100% control of plant disease) | ++ (++ = 75-100% control of plant disease)
CNC(=O)C(=NOC)c1ccccc1COc1ncc(C(O)(COS(=O)(=O)c2ccc(C)cc2)c2ccccc2)cc1Cl (centres unmarked) [Example 94] | ++ (++ = 75-100% control of plant disease) |  | ++ (++ = 75-100% control of plant disease) | ++ (++ = 75-100% control of plant disease) | ++ (++ = 75-100% control of plant disease)
CCC(OC(C)=O)c1cnc(OCc2ccccc2C(=NOC)C(=O)NC)c(Cl)c1 (centres unmarked) [Example 91] | ++ (++ = 75-100% control of plant disease) |  | ++ (++ = 75-100% control of plant disease) | ++ (++ = 75-100% control of plant disease) | ++ (++ = 75-100% control of plant disease)
CNC(=O)C(=NOC)c1ccccc1COc1ncc(C(O)(CO)c2ccccc2)cc1Cl (centres unmarked) [Example 86] | ++ (++ = 75-100% control of plant disease) |  | − (− = 0-24% control of plant disease) | ++ (++ = 75-100% control of plant disease) | − (− = 0-24% control of plant disease)
CNC(=O)C(=NOC)c1ccccc1COc1ncc(C(O)c2ccc3ccccc3c2)cc1Cl (racemic) [Example 49] | ++ (++ = 75-100% control of plant disease) |  | ++ (++ = 75-100% control of plant disease) | ++ (++ = 75-100% control of plant disease) | ++ (++ = 75-100% control of plant disease)
CNC(=O)C(=NOC)c1ccccc1COc1ncc(C(O)c2ccc(F)cc2)cc1C (racemic) [Example 14] | ++ (++ = 75-100% control of plant disease) | ++ (++ = 75-100% control of plant disease) | ++ (++ = 75-100% control of plant disease) | ++ (++ = 75-100% control of plant disease) | 
